{"source": "patent US8349366B2", "about": "“Immediate release pharmaceutical granule compositions and a continuous process for making them” (Universiteit Gent, priority 2002, dated 2013)", "key": {"[1]": {"experiment": "Drug dissolution test of extruded granules or pellets, paddles at 100 rpm, demineralized water, room temperature", "format": "physicochemical", "details": "paddles 100 rpm", "description": "The extruded granules were collected, sieved and further analysed for drug dissolution (data shown in FIGS. 1 and 2, formulations B and D). The dissolution test was performed at room temperature by using paddles rotating at 100 rpm, the dissolution medium being demineralized water."}, "[2]": {"details": "cited from earlier work"}, "[3]": {"details": "in vivo; cited from earlier work"}, "[4]": {"details": "capsules with granulate formulation, surfactants, cyclodextrin, Avicel PH 101 and Primojel (U.S. Pat. No. 5,646,131, example 4); cited from earlier work"}}, "data": [{"smiles": "COc1cc(Cc2cnc(N)nc2N)cc(OC)c1OC", "note": "[trimethoprim, 2,4-diamino-5-(3,4,5-trimethoxy-benzyl)pyrimidine]", "values": [{"measurement": "drug release after 30 minutes", "setting": "[1]", "result": 38, "unit": "%"}]}, {"smiles": "CC/C(=C(/CC)c1ccc(O)cc1)c1ccc(O)cc1", "note": "[diethylstilbestrol]", "values": [{"measurement": "solubility in water (in words)", "setting": "[2]", "result": "virtually insoluble in water"}]}, {"smiles": "CS(=O)(=O)c1ccc([C@@H](O)[C@@H](CF)NC(=O)C(Cl)Cl)cc1", "note": "[florfenicol, D-(threo)-1-p-methylsulfonyl phenyl-2-dichloroacetamido-3-fluoro-l-propanol]", "values": [{"measurement": "oral bioavailability", "setting": "[3]", "result": "good oral bioavailability"}]}, {"smiles": "CC(C)(C)c1ccc(C(O)CCCN2CCC(C(O)(c3ccccc3)c3ccccc3)CC2)cc1", "note": "(stereo not drawn) [terfenadine]", "values": [{"measurement": "drug release within 45 minutes", "setting": "[4]", "result": 90, "unit": "%"}, {"measurement": "water-solubility", "setting": "[2]", "result": "less than 0.01 mg/ml"}]}, {"smiles": "Cn1c(=O)c2[nH]cnc2n(C)c1=O", "note": "[theophylline]", "values": [{"measurement": "water-solubility", "setting": "[2]", "result": 8000, "unit": "µg/mL"}]}]}
